Laboratory results from patent US9708314B2, “Heterocyclic amide compound” (NISSAN CHEMICAL INDUSTRIES, LTD., priority 2013, dated 2017).

What was measured:
Type in all cases: in vivo
Chenopodium album = assay: Test Example 4: herbicidal effect by application to foliage (diluvial soil, plastic box); conditions: for O: Application herbicide amount 320 g/ha; for O (Chenopodium album) herbicidal effect: application to foliage, application herbicide amount 320 g/ha
In short: (§1)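 Emulsion-formulated compound, diluted to a predetermined g/ha dose, applied by small sprayer to leaves and stems of 14-day-old seedlings grown in sterilized diluvial soil. Effect rated on 0–5 herbicidal-ratio scale three weeks on.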

Avena fatua = assay: as above; conditions: for I: Application herbicide amount 320 g/ha; for I (Avena fatua) herbicidal effect: application to foliage, application herbicide amount 320 g/ha
In short: as §1

Digitaria ciliaris = assay: as above; conditions: for F: Application herbicide amount 320 g/ha; for F (Digitaria ciliaris) herbicidal effect: application to foliage, application herbicide amount 320 g/ha
In short: as §1

Galium spurium = assay: as above; conditions: for Q: Application herbicide amount 320 g/ha; for Q (Galium spurium) herbicidal effect: application to foliage, application herbicide amount 320 g/ha
In short: as §1

Apera spica-venti. = assay: as above; conditions: for L: Application herbicide amount 320 g/ha; for L (Apera spica-venti.) herbicidal effect: application to foliage, application herbicide amount 320 g/ha
In short: as §1

Alopecurus myosuroides = assay: as above; conditions: for J: Application herbicide amount 320 g/ha; for J (Alopecurus myosuroides) herbicidal effect: application to foliage, application herbicide amount 320 g/ha
In short: as §1

Lolium multiflorum Lam. = assay: as above; conditions: for K: Application herbicide amount 320 g/ha; for K (Lolium multiflorum Lam.) herbicidal effect: application to foliage, application herbicide amount 320 g/ha
In short: as §1

Setaria viridis = assay: as above; conditions: for G: Application herbicide amount 320 g/ha; for G (Setaria viridis) herbicidal effect: application to foliage, application herbicide amount 320 g/ha
In short: as §1

Veronica persica = assay: as above; conditions: for R: Application herbicide amount 320 g/ha; for R (Veronica persica) herbicidal effect: application to foliage, application herbicide amount 320 g/ha
In short: as §1

Abutilon theophrasti = assay: as above; conditions: for M: Application herbicide amount 320 g/ha; for M (Abutilon theophrasti) herbicidal effect: application to foliage, application herbicide amount 320 g/ha
In short: as §1

[1] = system: Echinochloa crus-galli var. crus-galli; assay: as above; conditions: for H: Application herbicide amount 320 g/ha; for H (Echinochloa crus-galli var. crus-galli) herbicidal effect: application to foliage, application herbicide amount 320 g/ha
In short: as §1

Scirpus juncoides = assay: Test Example 2: herbicidal activity, application during weed generation in submerged conditions; conditions: Eighteenth Table; application herbicide amount 320 g/ha
In short: (§2)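 Post-emergence application under submerged conditions: water-diluted emulsion dosed onto the water surface (g/ha) when weeds reach one- to two-leaf stage. Soil flooded to 4 cm; greenhouse 25–30 °C. Herbicidal ratio graded in six classes, 0 (≤5%) to 5 (≥90%), at three weeks.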

[2] = system: Echinochloa oryzacola Vasing.; assay: as above; conditions: Eighteenth Table; application herbicide amount 320 g/ha
In short: as §2

Monochoria vaginalis = assay: as above; conditions: Eighteenth Table; application herbicide amount 320 g/ha
In short: as §2

Zea mays = assay: Test Example 4: effect on crop by application to foliage (diluvial soil, plastic box); conditions: for b: Application herbicide amount 320 g/ha, effect on crop; for b (Zea mays) effect on crop: application to foliage, application herbicide amount 320 g/ha
In short: as §1

Glycine max = assay: as above; conditions: for c: Application herbicide amount 320 g/ha, effect on crop; for c (Glycine max) effect on crop: application to foliage, application herbicide amount 320 g/ha
In short: as §1

Triticum aestivum = assay: as above; conditions: for e: Application herbicide amount 320 g/ha, effect on crop; for e (Triticum aestivum) effect on crop: application to foliage, application herbicide amount 320 g/ha
In short: as §1

Brassica campestris L. = assay: as above; conditions: for g: Application herbicide amount 320 g/ha, effect on crop; for g (Brassica campestris L.) effect on crop: application to foliage, application herbicide amount 320 g/ha
In short: as §1

[3] = system: directly sowed Oryza sativa; assay: as above; conditions: for d: Application herbicide amount 320 g/ha, effect on crop; for d (directly sowed Oryza sativa) effect on crop: application to foliage, application herbicide amount 320 g/ha
In short: as §1

[4] = system: Beta vulgaris ssp. vulgaris; assay: as above; conditions: for f: Application herbicide amount 320 g/ha, effect on crop; for f (Beta vulgaris ssp. vulgaris) effect on crop: application to foliage, application herbicide amount 320 g/ha
In short: as §1

Structure (SMILES)	O (Chenopodium album)	I (Avena fatua)	F (Digitaria ciliaris)	Q (Galium spurium)	L (Apera spica-venti.)	J (Alopecurus myosuroides)	K (Lolium multiflorum Lam.)	G (Setaria viridis)	R (Veronica persica)	M (Abutilon theophrasti)	H [1]	B (Scirpus juncoides) herbicidal ratio grade (Scirpus juncoides)	A (Echinochloa oryzicola Vasing.) herbicidal ratio grade [2]	C (Monochoria vaginalis) herbicidal ratio grade (Monochoria vaginalis)	b (Zea mays)	c (Glycine max)	e (Triticum aestivum)	g (Brassica campestris L.)	d [3]	f [4]	other results
Cc1nnc(NC(=O)c2ccc(C(F)(F)F)n3c(SC(C)(C)C)nnc23)o1 [1-095]	5 (Herbicidal ratio of 90% or more (almost completely withered))	1 (Herbicidal ratio of 5% or more and less than 20%)	5 (Herbicidal ratio of 90% or more (almost completely withered))	3 (Herbicidal ratio of 40% or more and less than 70%)	1 (Herbicidal ratio of 5% or more and less than 20%)	1 (Herbicidal ratio of 5% or more and less than 20%)	2 (Herbicidal ratio of 20% or more and less than 40%)	3 (Herbicidal ratio of 40% or more and less than 70%)	5 (Herbicidal ratio of 90% or more (almost completely withered))	4 (Herbicidal ratio of 70% or more and less than 90%)	5 (Herbicidal ratio of 90% or more (almost completely withered))	5 (Herbicidal ratio of 90% or more (almost completely withered))	4 (Herbicidal ratio of 70% or more and less than 90%)	4 (Herbicidal ratio of 70% or more and less than 90%)	0 (Herbicidal ratio of 5% or less (almost no effect))	2 (Herbicidal ratio of 20% or more and less than 40%)	1 (Herbicidal ratio of 5% or more and less than 20%)	3 (Herbicidal ratio of 40% or more and less than 70%)	3 (Herbicidal ratio of 40% or more and less than 70%)	5 (Herbicidal ratio of 90% or more (almost completely withered))	–
Cc1nnc(NC(=O)c2ccc(C(F)(F)F)n3c(-c4cc(Cl)cc(Cl)c4)nnc23)o1 [1-071]	5 (Herbicidal ratio of 90% or more (almost completely withered))	0 (Herbicidal ratio of 5% or less (almost no effect))	1 (Herbicidal ratio of 5% or more and less than 20%)	1 (Herbicidal ratio of 5% or more and less than 20%)	0 (Herbicidal ratio of 5% or less (almost no effect))	0 (Herbicidal ratio of 5% or less (almost no effect))	0 (Herbicidal ratio of 5% or less (almost no effect))	0 (Herbicidal ratio of 5% or less (almost no effect))	3 (Herbicidal ratio of 40% or more and less than 70%)	3 (Herbicidal ratio of 40% or more and less than 70%)	0 (Herbicidal ratio of 5% or less (almost no effect))	5 (Herbicidal ratio of 90% or more (almost completely withered))	3 (Herbicidal ratio of 40% or more and less than 70%)	4 (Herbicidal ratio of 70% or more and less than 90%)	0 (Herbicidal ratio of 5% or less (almost no effect))	0 (Herbicidal ratio of 5% or less (almost no effect))	0 (Herbicidal ratio of 5% or less (almost no effect))	0 (Herbicidal ratio of 5% or less (almost no effect))	0 (Herbicidal ratio of 5% or less (almost no effect))	2 (Herbicidal ratio of 20% or more and less than 40%)	–
Cc1nnc(NC(=O)c2ccc(C(F)(F)F)n3c(C[S+](C)[O-])nnc23)o1 (centres unmarked) [1-036]	–	–	–	–	–	–	–	–	–	–	–	2 (Herbicidal ratio of 20% or more and less than 40%)	3 (Herbicidal ratio of 40% or more and less than 70%)	4 (Herbicidal ratio of 70% or more and less than 90%)	–	–	–	–	–	–	O (Chenopodium album) herbicidal effect (Chenopodium album): 5 (Herbicidal ratio of 90% or more (almost completely withered)); I (Avena fatua) herbicidal effect (Avena fatua): 4 (Herbicidal ratio of 70% or more and less than 90%); F (Digitaria ciliaris) herbicidal effect (Digitaria ciliaris): 5 (Herbicidal ratio of 90% or more (almost completely withered)); Q (Galium spurium) herbicidal effect (Galium spurium): 4 (Herbicidal ratio of 70% or more and less than 90%); L (Apera spica-venti.) herbicidal effect (Apera spica-venti.): 4 (Herbicidal ratio of 70% or more and less than 90%); J (Alopecurus myosuroides) herbicidal effect (Alopecurus myosuroides): 3 (Herbicidal ratio of 40% or more and less than 70%); K (Lolium multiflorum Lam.) herbicidal effect (Lolium multiflorum Lam.): 3 (Herbicidal ratio of 40% or more and less than 70%); G (Setaria viridis) herbicidal effect (Setaria viridis): 5 (Herbicidal ratio of 90% or more (almost completely withered)); R (Veronica persica) herbicidal effect (Veronica persica): 5 (Herbicidal ratio of 90% or more (almost completely withered)); M (Abutilon theophrasti) herbicidal effect (Abutilon theophrasti): 5 (Herbicidal ratio of 90% or more (almost completely withered)); H (Echinochloa crus-galli var. crus-galli) herbicidal effect [1]: 5 (Herbicidal ratio of 90% or more (almost completely withered)); b (Zea mays) effect on crop (Zea mays): 3 (Herbicidal ratio of 40% or more and less than 70%); c (Glycine max) effect on crop (Glycine max): 3 (Herbicidal ratio of 40% or more and less than 70%); e (Triticum aestivum) effect on crop (Triticum aestivum): 3 (Herbicidal ratio of 40% or more and less than 70%); g (Brassica campestris L.) effect on crop (Brassica campestris L.): 5 (Herbicidal ratio of 90% or more (almost completely withered)); d (directly sowed Oryza sativa) effect on crop [3]: 4 (Herbicidal ratio of 70% or more and less than 90%); f (Beta vulgaris ssp. vulgaris) effect on crop [4]: 5 (Herbicidal ratio of 90% or more (almost completely withered))
Cc1nnc(NC(=O)c2ccc(C(F)(F)F)n3c(SC(C)C)nnc23)o1 [1-033]	–	–	–	–	–	–	–	–	–	–	–	4 (Herbicidal ratio of 70% or more and less than 90%)	4 (Herbicidal ratio of 70% or more and less than 90%)	3 (Herbicidal ratio of 40% or more and less than 70%)	–	–	–	–	–	–	O (Chenopodium album) herbicidal effect (Chenopodium album): 5 (Herbicidal ratio of 90% or more (almost completely withered)); I (Avena fatua) herbicidal effect (Avena fatua): 2 (Herbicidal ratio of 20% or more and less than 40%); F (Digitaria ciliaris) herbicidal effect (Digitaria ciliaris): 5 (Herbicidal ratio of 90% or more (almost completely withered)); Q (Galium spurium) herbicidal effect (Galium spurium): 3 (Herbicidal ratio of 40% or more and less than 70%); L (Apera spica-venti.) herbicidal effect (Apera spica-venti.): 2 (Herbicidal ratio of 20% or more and less than 40%); J (Alopecurus myosuroides) herbicidal effect (Alopecurus myosuroides): 1 (Herbicidal ratio of 5% or more and less than 20%); K (Lolium multiflorum Lam.) herbicidal effect (Lolium multiflorum Lam.): 1 (Herbicidal ratio of 5% or more and less than 20%); G (Setaria viridis) herbicidal effect (Setaria viridis): 5 (Herbicidal ratio of 90% or more (almost completely withered)); R (Veronica persica) herbicidal effect (Veronica persica): 5 (Herbicidal ratio of 90% or more (almost completely withered)); M (Abutilon theophrasti) herbicidal effect (Abutilon theophrasti): 5 (Herbicidal ratio of 90% or more (almost completely withered)); H (Echinochloa crus-galli var. crus-galli) herbicidal effect [1]: 5 (Herbicidal ratio of 90% or more (almost completely withered)); b (Zea mays) effect on crop (Zea mays): 0 (Herbicidal ratio of 5% or less (almost no effect)); c (Glycine max) effect on crop (Glycine max): 2 (Herbicidal ratio of 20% or more and less than 40%); e (Triticum aestivum) effect on crop (Triticum aestivum): 1 (Herbicidal ratio of 5% or more and less than 20%); g (Brassica campestris L.) effect on crop (Brassica campestris L.): 4 (Herbicidal ratio of 70% or more and less than 90%); d (directly sowed Oryza sativa) effect on crop [3]: 3 (Herbicidal ratio of 40% or more and less than 70%); f (Beta vulgaris ssp. vulgaris) effect on crop [4]: 5 (Herbicidal ratio of 90% or more (almost completely withered))
